From patent US9707233B2, “Heterocyclylamines as PI3K inhibitors” (Incyte Corporation, priority 2011, dated 2017)
pIC50: −log10 of the molar value.

Biological target: PI3Kδ (p110δ/p85α) (Homo sapiens (Human), UniProt O00329)
Experiment: PI3Kδ scintillation proximity assay (Example A3)
Format: biochemical
Conditions: 20 μM ATP, 20 μM PIP2, 4 nM PI3Kδ; read-out: PI3Kδ SPA IC50
Experimental: [γ-^33P]ATP (10 mCi/mL) was purchased from Perkin-Elmer (Waltham, Mass.). […] PI3Kδ (p110δ/p85α) was purchased from Millipore (Bedford, Mass.). ATP, MgCl2, DTT, EDTA, MOPS and CHAPS were purchased from Sigma-Aldrich (St. Louis, Mo.). Wheat Germ Agglutinin (WGA) YSi SPA Scintillation Beads was purchased from GE healthcare life sciences (Piscataway, N.J.).
The kinase reaction was conducted in polystyrene 384-well matrix white plate from Thermo Fisher Scientific in a final volume of 25 μL. Inhibitors were first diluted serially in DMSO and added to the plate wells before the addition of other reaction components. The final concentration of DMSO in the assay was 0.5%. The PI3K assays were carried out at room temperature in 20 mM MOPS, pH 6.7, 10 mM MgCl2, 5 mM DTT and CHAPS 0.03%. Reactions were initiated by the addition of ATP, the final reaction mixture consisted of 20 μM PIP2, 20 μM ATP, 0.2 μCi [γ-^33P]ATP, 4 nM PI3Kδ. […] 25 mM EDTA, 400 μM ATP. The final concentration of SPA beads was 1.0 mg/mL. After the plate sealing, plates were shaken overnight at room temperature and centrifuged at 1800 rpm for 10 minutes, the radioactivity of the product was determined by scintillation counting on Topcount (Perkin-Elmer). IC50 determination was performed by fitting the curve of percent control activity versus the log of the inhibitor concentration using the GraphPad Prism 3.0 software.

PI3Kδ (p110δ/p85α), sequence (O00329 whole entry): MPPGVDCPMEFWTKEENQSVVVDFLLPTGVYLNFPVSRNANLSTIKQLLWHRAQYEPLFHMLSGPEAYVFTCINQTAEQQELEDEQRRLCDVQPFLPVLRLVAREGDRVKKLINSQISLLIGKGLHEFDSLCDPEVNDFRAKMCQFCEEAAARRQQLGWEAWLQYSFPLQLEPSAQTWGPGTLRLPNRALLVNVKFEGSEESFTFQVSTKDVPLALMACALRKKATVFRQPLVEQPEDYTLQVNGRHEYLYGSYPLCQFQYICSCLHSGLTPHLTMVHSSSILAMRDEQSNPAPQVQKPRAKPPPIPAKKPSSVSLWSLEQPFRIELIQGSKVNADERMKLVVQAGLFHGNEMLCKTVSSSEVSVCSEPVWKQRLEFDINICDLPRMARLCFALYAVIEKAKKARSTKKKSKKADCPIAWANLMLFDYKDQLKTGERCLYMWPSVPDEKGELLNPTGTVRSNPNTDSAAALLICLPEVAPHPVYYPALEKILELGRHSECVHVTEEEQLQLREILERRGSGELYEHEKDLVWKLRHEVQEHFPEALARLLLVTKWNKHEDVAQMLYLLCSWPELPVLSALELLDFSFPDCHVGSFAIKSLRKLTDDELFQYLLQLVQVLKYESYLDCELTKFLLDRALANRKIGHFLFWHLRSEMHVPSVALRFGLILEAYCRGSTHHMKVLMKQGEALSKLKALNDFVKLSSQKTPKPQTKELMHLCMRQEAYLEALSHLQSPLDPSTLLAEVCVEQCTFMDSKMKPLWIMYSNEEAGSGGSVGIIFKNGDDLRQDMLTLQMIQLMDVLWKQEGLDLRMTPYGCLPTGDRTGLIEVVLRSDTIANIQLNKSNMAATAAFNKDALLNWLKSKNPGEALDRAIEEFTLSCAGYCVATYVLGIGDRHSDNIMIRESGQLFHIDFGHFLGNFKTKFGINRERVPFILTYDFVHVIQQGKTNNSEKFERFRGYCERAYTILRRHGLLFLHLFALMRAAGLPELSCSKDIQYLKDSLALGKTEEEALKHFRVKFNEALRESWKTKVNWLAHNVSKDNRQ
PI3Kδ (p110δ/p85α), sequence (P27986 whole entry partner): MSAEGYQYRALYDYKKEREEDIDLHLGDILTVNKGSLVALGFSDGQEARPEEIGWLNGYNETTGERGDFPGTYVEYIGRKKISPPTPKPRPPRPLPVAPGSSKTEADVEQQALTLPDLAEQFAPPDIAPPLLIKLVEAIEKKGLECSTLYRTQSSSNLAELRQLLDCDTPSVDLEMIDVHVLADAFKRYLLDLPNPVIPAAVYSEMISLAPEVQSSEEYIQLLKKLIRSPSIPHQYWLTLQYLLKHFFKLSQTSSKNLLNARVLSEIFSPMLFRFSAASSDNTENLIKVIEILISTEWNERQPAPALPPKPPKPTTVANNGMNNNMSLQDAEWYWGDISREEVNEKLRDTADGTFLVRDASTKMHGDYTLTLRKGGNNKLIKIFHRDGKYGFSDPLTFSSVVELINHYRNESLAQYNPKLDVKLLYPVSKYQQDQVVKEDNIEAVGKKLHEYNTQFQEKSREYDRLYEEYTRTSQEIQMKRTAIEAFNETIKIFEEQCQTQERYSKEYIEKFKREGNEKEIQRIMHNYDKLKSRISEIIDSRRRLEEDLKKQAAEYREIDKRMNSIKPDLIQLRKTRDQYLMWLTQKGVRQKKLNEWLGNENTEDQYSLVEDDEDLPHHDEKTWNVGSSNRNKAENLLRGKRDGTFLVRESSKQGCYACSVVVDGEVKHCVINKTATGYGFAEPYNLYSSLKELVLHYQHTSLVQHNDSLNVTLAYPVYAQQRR

pIC50, 6.70 to 7.30:
COc1c(C(C)n2nc(C)c3c(N)ncnc32)cc(Cl)c(C)c1CC1CC1 (single isomer, unassigned) [Example 193, 1-{1-[5-Chloro-3-(cyclopropylmethyl)-2-methoxy-4-methylphenyl]ethyl}-3-methyl-1H-pyrazolo[3,4-d]pyrimidin-4-amine]
CCOc1c(C(C)n2nc(C)c3c(N)ncnc32)cc(Cl)c(F)c1C1CNC(=O)O1 (single isomer, unassigned) [Example 356, 5-{3-[1-(4-amino-3-methyl-1H-pyrazolo[3,4-d]pyrimidin-1-yl)ethyl]-5-chloro-2-ethoxy-6-fluorophenyl}-1,3-oxazolidin-2-one]
COc1c(C(C)n2nc(C)c3c(N)ncnc32)cc(Cl)c(C)c1C1CNC(=O)CO1 (single isomer, unassigned) [324 (1st peak), 6-{3-[1-(4-Amino-3-methyl-1H-pyrazolo[3,4-d]pyrimidin-1-yl)ethyl]-5-chloro-2-methoxy-6-methylphenyl}morpholin-3-one]
CCOc1c(C(C)n2nc(CN(C)C)c3c(N)ncnc32)cc(Cl)c(C)c1-c1ccc(C(=O)N(C)C)nc1 (racemic) [Example 85, 5-[3-(1-{4-Amino-3-[(dimethylamino)methyl]-1H-pyrazolo[3,4-d]pyrimidin-1-yl}ethyl)-5-chloro-2-ethoxy-6-methylphenyl]-N,N-dimethylpyridine-2-carboxamide tris(trifluoroacetate)]

pIC50, 7.30 to 8.00:
COc1c(C(C)n2nc(C)c3c(N)ncnc32)cc(C#N)c(C)c1-c1cnn(C)c1 (single isomer, unassigned) [Example 209, 5-[1-(4-Amino-3-methyl-1H-pyrazolo[3,4-d]pyrimidin-1-yl)ethyl]-4-methoxy-2-methyl-3-(1-methyl-1H-pyrazol-4-yl)benzonitrile]
CCOc1c(C(C)n2nc(-c3ccc(C(=O)N(C)C)nc3)c3c(N)ncnc32)cc(Cl)c(C)c1-c1ccc(C(=O)N(C)C)nc1 (racemic) [Example 56, 5-{4-amino-1-[1-(5-chloro-3-{6-[(dimethylamino)carbonyl]pyridin-3-yl}-2-ethoxy-4-methylphenyl)ethyl]-1H-pyrazolo[3,4-d]pyrimidin-3-yl}-N,N-dimethylpyridine-2-carboxamide tris(trifluoroacetate)]
CCOc1c(C(C)n2nc(C#N)c3c(N)ncnc32)cc(Cl)c(C)c1-c1ccc(C(=O)N(C)C)nc1 (racemic) [Example 54, 5-{3-[1-(4-amino-3-cyano-1H-pyrazolo[3,4-d]pyrimidin-1-yl)ethyl]-5-chloro-2-ethoxy-6-methylphenyl}-N,N-dimethylpyridine-2-carboxamide]

pIC50, ≥ 8.00:
CCOc1c(C(C)n2nc(C)c3c(N)ncnc32)cc(Cl)c(C#N)c1C1CNC(=O)O1 (single isomer, unassigned) [323 (1st peak), 4-[1-(4-amino-3-methyl-1H-pyrazolo[3,4-d]pyrimidin-1-yl)ethyl]-6-chloro-3-ethoxy-2-(2-oxo-1,3-oxazolidin-5-yl)benzonitrile]
CCOC(=O)N1CC(c2c(C#N)c(Cl)cc(C(C)n3nc(C)c4c(N)ncnc43)c2OCC)C1 (single isomer, unassigned) [Example 253, Ethyl 3-{3-[1-(4-amino-3-methyl-1H-pyrazolo[3,4-d]pyrimidin-1-yl)ethyl]-5-chloro-6-cyano-2-ethoxyphenyl}azetidine-1-carboxylate]
COc1c(C(C)n2nc(C)c3c(N)ncnc32)cc(Cl)c(F)c1C1CN(C[C@H](C)O)C1 (single isomer, unassigned) [68 (1st peak)]
CCOc1c(C(C)n2nc(C)c3c(N)ncnc32)cc(Cl)c(C#N)c1C1CN(CC2CCOC2)C1 (single isomer, unassigned) [Example 230, 4-[1-(4-Amino-3-methyl-1H-pyrazolo[3,4-d]pyrimidin-1-yl)ethyl]-6-chloro-3-ethoxy-2-[1-(tetrahydrofuran-3-ylmethyl)azetidin-3-yl]benzonitrile]
CCOc1c(C(C)n2nc(C)c3c(N)ncnc32)cc(Cl)c(C#N)c1C1CN(C(=O)C2CC2)C1 (single isomer, unassigned) [Example 246, 4-[1-(4-Amino-3-methyl-1H-pyrazolo[3,4-d]pyrimidin-1-yl)ethyl]-6-chloro-2-[1-(cyclopropylcarbonyl)azetidin-3-yl]-3-ethoxybenzonitrile]
CCOc1c(C(C)n2nc(C)c3c(N)ncnc32)cc(Cl)c(C#N)c1C1CNC(=O)O1 (single isomer, unassigned) [323 (4th peak), 4-[1-(4-amino-3-methyl-1H-pyrazolo[3,4-d]pyrimidin-1-yl)ethyl]-6-chloro-3-ethoxy-2-(2-oxo-1,3-oxazolidin-5-yl)benzonitrile]
CCOc1c(C(C)n2nc(C)c3c(N)ncnc32)cc(C)c(C#N)c1-c1cncc(S(C)(=O)=O)c1 (single isomer, unassigned) [Example 335, 4-[1-(4-amino-3-methyl-1H-pyrazolo[3,4-d]pyrimidin-1-yl)ethyl]-3-ethoxy-6-methyl-2-[5-(methylsulfonyl)pyridin-3-yl]benzonitrile]
CCOc1c(C(C)n2nc(-c3ccncc3)c3c(N)ncnc32)cc(Cl)c(C)c1-c1ccc(C(=O)N(C)C)nc1 (racemic) [Example 60, 5-{3-[1-(4-amino-3-pyridin-4-yl-1H-pyrazolo[3,4-d]pyrimidin-1-yl)ethyl]-5-chloro-2-ethoxy-6-methylphenyl}-N,N-dimethylpyridine-2-carboxamide tris(trifluoroacetate)]
CCOc1c(C(C)n2nc(C)c3c(N)ncnc32)cc(Cl)c(C#N)c1-c1ccc(-c2nnn(C)n2)nc1 (racemic) [Example 336, 4-[1-(4-amino-3-methyl-1H-pyrazolo[3,4-d]pyrimidin-1-yl)ethyl]-6-chloro-3-ethoxy-2-[6-(2-methyl-2H-tetrazol-5-yl)pyridin-3-yl]benzonitrile]
COc1c(C(C)n2nc(C)c3c(N)ncnc32)cc(Cl)c(C)c1C1CN(CC2CC2)C1 (racemic) [Example 4, 1-(1-{5-Chloro-3-[1-(cyclopropylmethyl)azetidin-3-yl]-2-methoxy-4-methylphenyl}ethyl)-3-methyl-1H-pyrazolo[3,4-d]pyrimidin-4-amine bis(trifluoroacetate)]
CCC(=O)N1CC(c2c(C#N)c(Cl)cc(C(C)n3nc(C)c4c(N)ncnc43)c2OC)C1 (single isomer, unassigned) [Example 282, 4-[1-(4-Amino-3-methyl-1H-pyrazolo[3,4-d]pyrimidin-1-yl)ethyl]-6-chloro-3-methoxy-2-(1-propionylazetidin-3-yl)benzonitrile]
CCOc1c(C(C)n2nc(C)c3c(N)ncnc32)cc(Cl)c(C#N)c1C1CN(C(=O)N(C)C)C1 (single isomer, unassigned) [Example 259, 3-{3-[1-(4-Amino-3-methyl-1H-pyrazolo[3,4-d]pyrimidin-1-yl)ethyl]-5-chloro-6-cyano-2-ethoxyphenyl}-N,N-dimethylazetidine-1-carboxamide]
CCOc1c(C(C)n2nc(-c3cncc(C(=O)N(C)C)c3)c3c(N)ncnc32)cc(Cl)c(C)c1-c1ccc(C(=O)N(C)C)nc1 (racemic) [Example 62, 5-{3-[1-(4-amino-3-{5-[(dimethylamino)carbonyl]pyridin-3-yl}-1H-pyrazolo[3,4-d]pyrimidin-1-yl)ethyl]-5-chloro-2-ethoxy-6-methylphenyl}-N,N-dimethylpyridine-2-carboxamide tris(trifluoroacetate)]
COc1c(C(C)n2nc(C)c3c(N)ncnc32)cc(Cl)c(C#N)c1C1CN(C(=O)C2CC2)C1 (single isomer, unassigned) [Example 284, 4-[1-(4-Amino-3-methyl-1H-pyrazolo[3,4-d]pyrimidin-1-yl)ethyl]-6-chloro-2-[1-(cyclopropylcarbonyl)azetidin-3-yl]-3-methoxybenzonitrile]
CCOc1c(C(C)n2nc(C)c3c(N)ncnc32)cc(C)c(C#N)c1-c1ccnc(C(=O)N(C)C)c1 (single isomer, unassigned) [Example 340, 4-{3-[1-(4-amino-3-methyl-1H-pyrazolo[3,4-d]pyrimidin-1-yl)ethyl]-6-cyano-2-ethoxy-5-methylphenyl}-N,N-dimethylpyridine-2-carboxamide]
CCOc1c(C(C)n2nc(C)c3c(N)ncnc32)cc(Cl)c(C#N)c1C1CN(C(=O)NC)C1 (stereo not drawn) [Example 257, 3-{3-[1-(4-Amino-3-methyl-1H-pyrazolo[3,4-d]pyrimidin-1-yl)ethyl]-5-chloro-6-cyano-2-ethoxyphenyl}-N-methylazetidine-1-carboxamide]
COc1c(C(C)n2nc(C)c3c(N)ncnc32)cc(Cl)c(C#N)c1C1CN(CC2CC2)C1 (single isomer, unassigned) [Example 266, 4-[1-(4-Amino-3-methyl-1H-pyrazolo[3,4-d]pyrimidin-1-yl)ethyl]-6-chloro-2-[1-(cyclopropylmethyl)azetidin-3-yl]-3-methoxybenzonitrile]
